The subject of series [1] is Klebsiella pneumoniae ATCC 700603. The conditions noted are these: ATCC 700603, SHV-18, mucoid; MHB-II, 37°C, ~5×10^5 CFU/ml, triplicate.
The conditions of series [2]: cited from earlier work.
The next series deals with P. aeruginosa B3-CFI. As to conditions: clinical isolate, colistin resistant, MHB-II, 37°C, ~5×10^5 CFU/ml, triplicate.
Another series concerns E. coli ATCC25922. Nature of the series: Live/Dead staining and phase contrast microscopy. Format: cell-based. As to conditions: 5xMIC, first 30 min of treatment, OD600 = 0.1. Here is the method: Exponentially growing E. coli ATCC25922 were treated for 30 min with either colistin (5xMIC) or ChIP (5xMIC) at OD600 = 0.1. An untreated culture was used as a control. 20 ml of treated or untreated culture was concentrated by centrifugation at 5,000 × g for 10 minutes, washed and re-suspended in 10 ml 0.9% NaCl. All samples were incubated at room temperature for 1 hour, mixing every 15 minutes, before washing twice with 10 ml 0.9% NaCl. After washing, the samples were re-suspended in 5 ml 0.9% NaCl, except for ChIP treated samples that were suspended in 1 ml 0.9% NaCl. Sample staining was performed according to the manufacturers instruction (LIVE/DEAD(tm) BacLight(tm) Bacterial Viability Kit, for microscopy & quantitative assays), and incubated for 15 minutes in the dark. 5 μl of the bacterial suspension was placed on an agar pad and analyzed by fluorescence microscopy using an AxioImager Z1 microscope (Carl Zeiss MicroImaging, Inc), with a × 100 objective and a Hamamatsu ORCA-ER C4742-80-12AG camera.

A further series relates to E. coli ATCC 25922. Description: MIC in the presence of 50% human serum. Format: cell-based. The conditions noted are these: 50% heat inactivated human male AB serum and 50% MHB-II; crude measure of protein binding/interference; triplicate. Here is the method:
The minimum inhibitory concentration (MIC) was determined as previously described ([68]), with minor modifications. Briefly, exponentially growing cultures in MHB-II (37°C) were diluted to an OD600 = 0.002, approximately 1×10^6 colony forming units (CFU) per ml. 100 µl of bacterial suspension was added to polypropylene microtiter plates containing 100 µl of Colistin or ChIP dilutions. Giving a final bacterial inoculum of ∼ 5×10^5 CFU/ml. Colistin sulfate salt (Sigma-Aldrich) and ChIP (Genscript >95% purity) was dissolved in H2O. ChIP MIC in serum was determined in the presence of 50% (heat inactivated) human serum (Sigma) and 50% MHB-II. All experiments were performed in triplicate.

The test system of another series is E. coli ESBL20150072. Description: In vivo sepsis/peritonitis mouse infection model. The conditions noted are these: NMRI mice infected IP; 10 mg/kg IP at 1 and 3 h; 5 hours post infection. The method, then:
Outbred female NMRI mice (NMRI; weight 26–30 g; Taconic, Denmark) were used throughout the study, as previously described ([69], [70]). […] Colistin is recommended at a dose of 5-10 mg/kg, according to the European Medicines Agency (EMA) ([71]). The animals were kept in Macrolon type III cages in groups of six and allowed free access to feed and water. Experiments were initiated after an acclimatization period of 7 days. Inoculation (bacterial infection) was performed by intraperitoneal (IP) injection of 0.5 ml bacterial suspension containing 2×10^7 CFU/ml and 5% (wt/vol) mucin (Sigma-Aldrich). During experiments, groups of eight mice per cage constituting one experimental unit were randomly assigned to treatment (5 mg/kg ChIP and 10 mg/kg ChIP or colistin 10 mg/kg and 24 mg/kg) or no treatment (vehicle). Peptide and colistin was administered as a single bolus injection IP (volume injected 0.2 ml) at 1 hours and again 3. At various times post-infection, ∼200 µL blood from the jaw/cheek was collected in Eppendorf tubes with anti-coagulate (Sarstedt, Nümbrecht, Germany). Peritoneal lavage was performed by injecting 2.0 ml of sterile physiological saline IP. After 1 minute of abdominal massage, the peritoneum was opened and peritoneal lavage fluid (PLF) withdrawn. PLF was immediately placed in an insulated 4 °C cooling box for transportation and kept on ice at 4 °C. The mouse peritonitis model was repeated in duplicates for E. coli ATCC 25922 and A. baumannii ATCC 19606 nad in triplicate for E. coli ESBL20150072, while only a single experiment was carried out on A. baumannii CR17. Animals were sacrificed at various times prior to and following infection. Data from repeated experiments were pooled for analyses. Quantification of bacterial load was performed by spot plating of blood and peritoneal fluid samples from the mice. Dilution series were made in sterile 0.9% NaCl solution, from which 20 μl was spotted on solid lactose agar plates (Bromthymole Blue plates, SSI Diagnostica). Bacterial counts were recorded after overnight incubation at 37 °C in ambient air. The detection limit was 50 CFU/ml. The clinical condition of the mice was determined using a self-developed clinical score. For this score, mouse behavior and appearance were observed and evaluated for the parameters piloerection, attitude, locomotion, breathing and curiosity and awarded a score from 0 to 5 by a blinded observer. 0 = no clinical signs, 1 = slightly ruffled fur, 2 = ruffled fur and strenuous breathing, 3 = 2 plus lethargy, 4 = 3 plus hunched posture and decreased activity, and 5 = moribund. No significant difference in the clinical score between groups was observed 2 and 4 h post treatment. All mice were recorded for score 2.

Another series deals with E. coli and A. baumannii. Description: Mouse peritonitis model, overall statement. It counts as in vivo. As to conditions: after two-dose treatment. Here is the method:
Outbred female NMRI mice (NMRI; weight 26–30 g; Taconic, Denmark) were used throughout the study, as previously described ([69], [70]). […] Colistin is recommended at a dose of 5-10 mg/kg, according to the European Medicines Agency (EMA) ([71]). The animals were kept in Macrolon type III cages in groups of six and allowed free access to feed and water. Experiments were initiated after an acclimatization period of 7 days. Inoculation (bacterial infection) was performed by intraperitoneal (IP) injection of 0.5 ml bacterial suspension containing 2×10^7 CFU/ml and 5% (wt/vol) mucin (Sigma-Aldrich). During experiments, groups of eight mice per cage constituting one experimental unit were randomly assigned to treatment (5 mg/kg ChIP and 10 mg/kg ChIP or colistin 10 mg/kg and 24 mg/kg) or no treatment (vehicle). […] Quantification of bacterial load was performed by spot plating of blood and peritoneal fluid samples from the mice. […] Bacterial counts were recorded after overnight incubation at 37 °C in ambient air. […] The clinical condition of the mice was determined using a self-developed clinical score. For this score, mouse behavior and appearance were observed and evaluated for the parameters piloerection, attitude, locomotion, breathing and curiosity and awarded a score from 0 to 5 by a blinded observer. […] All mice were recorded for score 2.

Values after ≈ are worked out from the molar mass of the structure shown.

`CC[C@@H](C)[C@@H](NC(=O)[C@@H](CCCCN)NC(=O)[C@@H](CCCCN)NC(=O)[C@@H](Cc1ccccc1)NC(=O)[C@@H](CC(C)C)NC(=O)[C@@H](CCCCN)NC(=O)[C@H](N)CCCCN)C(=O)N[C@H](CC(C)C)C(=O)N[C@H](CCCNC(=N)N)C(=O)N[C@H](Cc1ccc(O)cc1)C(=O)N[C@H](CC(C)C)C(N)=O` [ChIP]: the MIC in series [1] stood at 8 µg/mL (≈ 5.52 µM). Moreover, in series [2], the hemolytic activity entry is on record as “low hemolytic activity”. The MIC in the series with P. aeruginosa B3-CFI was 8 µg/mL (≈ 5.52 µM). Moreover, the “viability and lysis (SYTO9 / propidium iodide, phase contrast)” value in the series with E. coli ATCC25922 is “loss of viability, but without lysis”. In addition, the “MIC in MHB-II + Human serum (50:50) versus MHB-II” value in the series on E. coli ATCC 25922 is listed as “did not change the MIC”. Besides, in the series on E. coli ESBL20150072, the peritoneal titers was 1×10^4 CFU/ml and the “reduction in peritoneal titers compared to vehicle (1×10^8 CFU/ml)” value is 3 logs. In the series on E. coli and A. baumannii, the bacterial reduction intraperitoneal result was “up to 5 logs”.

What is called MIC is the smallest concentration in the dilution series that meets the test's criterion for growth inhibition. A high value points to a less susceptible organism.
